The values below come from article PMC4151877 (Science (New York, N.Y.), 2014).

Experiment [1] addresses T1, NaAtm1 (Novosphingobium aromaticivorans, UniProt Q2G506).
T1 sequence (Q2G506 1-608): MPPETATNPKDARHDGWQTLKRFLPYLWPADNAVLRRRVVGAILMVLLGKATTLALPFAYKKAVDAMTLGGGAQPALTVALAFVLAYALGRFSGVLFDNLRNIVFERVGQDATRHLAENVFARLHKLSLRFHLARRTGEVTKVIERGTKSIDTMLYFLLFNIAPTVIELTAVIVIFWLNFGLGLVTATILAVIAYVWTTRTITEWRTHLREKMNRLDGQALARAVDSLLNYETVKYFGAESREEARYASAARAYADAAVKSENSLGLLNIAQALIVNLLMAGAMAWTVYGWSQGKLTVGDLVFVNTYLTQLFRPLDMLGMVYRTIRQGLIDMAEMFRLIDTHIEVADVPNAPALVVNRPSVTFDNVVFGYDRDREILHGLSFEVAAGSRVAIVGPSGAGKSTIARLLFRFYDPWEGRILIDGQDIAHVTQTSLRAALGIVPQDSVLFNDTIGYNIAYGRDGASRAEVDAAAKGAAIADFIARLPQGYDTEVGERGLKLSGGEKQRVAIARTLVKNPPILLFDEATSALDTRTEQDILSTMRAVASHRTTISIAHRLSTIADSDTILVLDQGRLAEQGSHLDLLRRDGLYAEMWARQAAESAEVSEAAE
Nature of the experiment: ligand-stimulated ATPase activity. In kind it is biochemical. The note with it: ATP hydrolysis.

Experiment [2] addresses T1, NaAtm1. Nature of the experiment: ligand-stimulated ATPase activity, Michaelis-Menten type analysis. Format: biochemical. Conditions: ATP hydrolysis; stimulating ligand varied.

Regarding `CSCC[C@H](N)C(=O)O` [Met], the ATPase stimulation entry at NaAtm1 [1] was “free amino acids Gly and Met to stimulate ATPase activity as effectively as GSH”.
Still for that read-out and setting: the result for `N[C@@H](CS)C(=O)NCC(=O)O` [Cys-Gly] reads “exhibit stronger ATPase activities relative to Cys-Gly and mono-carboxylic acids”.
Regarding `N[C@@H](CCC(=O)N[C@@H](CS)C(=O)O)C(=O)O` [γ-Glu-Cys], the Km result on NaAtm1 [2] is “γ-peptides GSH, γ-Glu-Cys, and ophthalmic acid”.
